# Test results published in PubChem BioAssay (NCI).
#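 All cell lines were grown in 96-well plates and treated with compound for 48 hours. GI50: concentration for 50% inhibition of growth. TGI: concentration producing complete growth inhibition.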
# What was measured:
# Test in all cases: growth of human tumour cells (NCI), 48 h
# 786-0 renal = test system: 786-0 renal
# A498 renal = test system: A498 renal
# A549 NSCLC = test system: A549 NSCLC
# ACHN renal = test system: ACHN renal
# BT-549 breast = test system: BT-549 breast
# CAKI-1 renal = test system: CAKI-1 renal
# CCRF-CEM leukemia = test system: CCRF-CEM leukemia
# DU-145 prostate = test system: DU-145 prostate
# EKVX NSCLC = test system: EKVX NSCLC
# HCC-2998 colon = test system: HCC-2998 colon
# HCT-116 colon = test system: HCT-116 colon
# HCT-15 colon = test system: HCT-15 colon
# HL-60(TB) leukemia = test system: HL-60(TB) leukemia
# HOP-62 NSCLC = test system: HOP-62 NSCLC
# HOP-92 NSCLC = test system: HOP-92 NSCLC
# HT29 colon = test system: HT29 colon
# IGROV1 ovarian = test system: IGROV1 ovarian
# K-562 leukemia = test system: K-562 leukemia
# KM12 colon = test system: KM12 colon
# LOX IMVI melanoma = test system: LOX IMVI melanoma
# M14 melanoma = test system: M14 melanoma
# MALME-3M melanoma = test system: MALME-3M melanoma
# MCF7 breast = test system: MCF7 breast
# MDA-MB-231 breast = test system: MDA-MB-231 breast
# MDA-MB-435 = test system: MDA-MB-435
# MOLT-4 leukemia = test system: MOLT-4 leukemia
# NCI-H226 lung = test system: NCI-H226 lung
# NCI-H23 lung = test system: NCI-H23 lung
# NCI-H460 lung = test system: NCI-H460 lung
# NCI-H522 lung = test system: NCI-H522 lung
# NCI/ADR-RES ovarian = test system: NCI/ADR-RES ovarian
# OVCAR-3 ovarian = test system: OVCAR-3 ovarian
# OVCAR-4 ovarian = test system: OVCAR-4 ovarian
# OVCAR-5 ovarian = test system: OVCAR-5 ovarian
# OVCAR-8 ovarian = test system: OVCAR-8 ovarian
# PC-3 prostate = test system: PC-3 prostate
# RPMI-8226 leukemia = test system: RPMI-8226 leukemia
# RXF 393 renal = test system: RXF 393 renal
# SF-268 CNS = test system: SF-268 CNS
# SF-295 CNS = test system: SF-295 CNS
# SF-539 CNS = test system: SF-539 CNS
# SK-MEL-2 melanoma = test system: SK-MEL-2 melanoma
# SK-MEL-5 melanoma = test system: SK-MEL-5 melanoma
# SK-OV-3 ovarian = test system: SK-OV-3 ovarian
# SN12C renal = test system: SN12C renal
# SNB-75 CNS = test system: SNB-75 CNS
# SR leukemia = test system: SR leukemia
# SW-620 colon = test system: SW-620 colon
# T-47D breast = test system: T-47D breast
# TK-10 renal = test system: TK-10 renal
# U251 CNS = test system: U251 CNS
# UACC-257 melanoma = test system: UACC-257 melanoma
# UACC-62 melanoma = test system: UACC-62 melanoma
# UO-31 renal = test system: UO-31 renal
compound,measurement,setting,value
C[C@]12CCC3c4ccc(O)cc4CCC3C1CC[C@@]2(O)C#Cc1ccc(C#C/C=C\C#Cc2ccccc2N)cc1 (stereo partly drawn),GI50,786-0 renal,20.5 µM
same,TGI,786-0 renal,57.5 µM
same,GI50,A498 renal,21.7 µM
same,TGI,A498 renal,41 µM
same,GI50,A549 NSCLC,32.9 µM
same,TGI,A549 NSCLC,> 100 µM
same,GI50,ACHN renal,17.8 µM
same,TGI,ACHN renal,43.6 µM
same,GI50,BT-549 breast,19.2 µM
same,TGI,BT-549 breast,45.1 µM
same,GI50,CAKI-1 renal,20.6 µM
same,TGI,CAKI-1 renal,68.6 µM
same,GI50,CCRF-CEM leukemia,> 100 µM
same,TGI,CCRF-CEM leukemia,> 100 µM
same,GI50,DU-145 prostate,23.9 µM
same,TGI,DU-145 prostate,> 100 µM
same,GI50,EKVX NSCLC,20.3 µM
same,TGI,EKVX NSCLC,65.5 µM
same,GI50,HCC-2998 colon,25.6 µM
same,TGI,HCC-2998 colon,54.5 µM
same,GI50,HCT-116 colon,12.3 µM
same,TGI,HCT-116 colon,> 100 µM
same,GI50,HCT-15 colon,22.2 µM
same,TGI,HCT-15 colon,> 100 µM
same,GI50,HL-60(TB) leukemia,26.7 µM
same,TGI,HL-60(TB) leukemia,> 100 µM
same,GI50,HOP-62 NSCLC,28.7 µM
same,TGI,HOP-62 NSCLC,70 µM
same,GI50,HOP-92 NSCLC,16 µM
same,TGI,HOP-92 NSCLC,46.5 µM
same,GI50,HT29 colon,25.8 µM
same,TGI,HT29 colon,> 100 µM
same,GI50,IGROV1 ovarian,87.1 µM
same,TGI,IGROV1 ovarian,> 100 µM
same,GI50,K-562 leukemia,12.4 µM
same,TGI,K-562 leukemia,86.5 µM
same,GI50,KM12 colon,9.66 µM
same,TGI,KM12 colon,> 100 µM
same,GI50,LOX IMVI melanoma,35.8 µM
same,TGI,LOX IMVI melanoma,> 100 µM
same,GI50,M14 melanoma,29.5 µM
same,TGI,M14 melanoma,> 100 µM
same,GI50,MALME-3M melanoma,17.2 µM
same,TGI,MALME-3M melanoma,48.1 µM
same,GI50,MCF7 breast,0.308 µM
same,TGI,MCF7 breast,> 100 µM
same,GI50,MDA-MB-231 breast,21 µM
same,TGI,MDA-MB-231 breast,53.5 µM
same,GI50,MDA-MB-435,31.7 µM
same,TGI,MDA-MB-435,> 100 µM
same,GI50,MOLT-4 leukemia,57.5 µM
same,TGI,MOLT-4 leukemia,> 100 µM
same,GI50,NCI-H226 lung,20.2 µM
same,TGI,NCI-H226 lung,48.2 µM
same,GI50,NCI-H23 lung,26.5 µM
same,TGI,NCI-H23 lung,> 100 µM
same,GI50,NCI-H460 lung,12.6 µM
same,TGI,NCI-H460 lung,> 100 µM
same,GI50,NCI-H522 lung,17 µM
same,TGI,NCI-H522 lung,> 100 µM
same,GI50,NCI/ADR-RES ovarian,17.7 µM
same,TGI,NCI/ADR-RES ovarian,52.2 µM
same,GI50,OVCAR-3 ovarian,13.8 µM
same,TGI,OVCAR-3 ovarian,48 µM
same,GI50,OVCAR-4 ovarian,23.6 µM
same,TGI,OVCAR-4 ovarian,> 100 µM
same,GI50,OVCAR-5 ovarian,38.4 µM
same,TGI,OVCAR-5 ovarian,> 100 µM
same,GI50,OVCAR-8 ovarian,47.4 µM
same,TGI,OVCAR-8 ovarian,> 100 µM
same,GI50,PC-3 prostate,15.6 µM
same,TGI,PC-3 prostate,55.3 µM
same,GI50,RPMI-8226 leukemia,7.56 µM
same,TGI,RPMI-8226 leukemia,79.7 µM
same,GI50,RXF 393 renal,36.3 µM
same,TGI,RXF 393 renal,> 100 µM
same,GI50,SF-268 CNS,24.8 µM
same,TGI,SF-268 CNS,> 100 µM
same,GI50,SF-295 CNS,17.1 µM
same,TGI,SF-295 CNS,> 100 µM
same,GI50,SF-539 CNS,21.3 µM
same,TGI,SF-539 CNS,52.6 µM
same,GI50,SK-MEL-2 melanoma,42.2 µM
same,TGI,SK-MEL-2 melanoma,> 100 µM
same,GI50,SK-MEL-5 melanoma,17.9 µM
same,TGI,SK-MEL-5 melanoma,41 µM
same,GI50,SK-OV-3 ovarian,39.7 µM
same,TGI,SK-OV-3 ovarian,> 100 µM
same,GI50,SN12C renal,21.7 µM
same,TGI,SN12C renal,61.1 µM
same,GI50,SNB-75 CNS,> 100 µM
same,TGI,SNB-75 CNS,> 100 µM
same,GI50,SR leukemia,> 100 µM
same,TGI,SR leukemia,> 100 µM
same,GI50,SW-620 colon,40 µM
same,TGI,SW-620 colon,> 100 µM
same,GI50,T-47D breast,> 100 µM
same,TGI,T-47D breast,> 100 µM
same,GI50,TK-10 renal,36.6 µM
same,TGI,TK-10 renal,> 100 µM
same,GI50,U251 CNS,19 µM
same,TGI,U251 CNS,80.4 µM
same,GI50,UACC-257 melanoma,28.7 µM
same,TGI,UACC-257 melanoma,> 100 µM
same,GI50,UACC-62 melanoma,15.2 µM
same,TGI,UACC-62 melanoma,41.2 µM
same,GI50,UO-31 renal,15.9 µM
same,TGI,UO-31 renal,85.1 µM
